Experimental data from PubChem BioAssay (NCI).
Where “and” joins values, the source holds several entries; their conditions need not be identical. Equal entries are not always repeated.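 All cell lines were grown in 96-well plates and treated with compound for 48 hours. GI50 marks 50% less growth. The concentration for full growth arrest is given as TGI.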

Columns and labels:
Test in all cases: NCI anticancer screen, dose series, 48 h
[1] = system: SF-539 CNS
[2] = system: HOP-92 NSCLC
[3] = system: SN12C renal
[4] = system: NCI-H226 lung
[5] = system: UO-31 renal
[6] = system: CAKI-1 renal
[7] = system: HCT-116 colon
[8] = system: SNB-75 CNS
[9] = system: KM12 colon
[10] = system: A498 renal

CN(C)CCN=c1nc2c(c(N)n1-c1ccccc1)c(=S)n(-c1ccccc1)c(=S)n2-c1ccccc1
GI50 [1]: 1.68 µM
TGI [1]: 3.29 µM
GI50 [2]: 1.62 µM
TGI [2]: 12.6 µM
GI50 [3]: 6.21 µM
TGI [3]: 20.5 µM
GI50 [4]: 13 µM
TGI [4]: 27.6 µM
GI50 [5]: 1.48 µM
TGI [5]: 3.83 µM
GI50 [6]: 2.16 µM
TGI [6]: 14.1 µM
GI50 [7]: 2.24 µM
TGI [7]: 9.38 µM
GI50 [8]: 2.3 µM
TGI [8]: 7.27 µM
GI50 [9]: 3.8 µM
TGI [9]: 14.2 µM
GI50 [10]: 1.24 µM
TGI [10]: 4.08 µM

CCS(=O)(=O)c1cccc(-c2cc(C(=O)NC3CCN(C)CC3)c(C)c3[nH]c4ncc(C)cc4c23)c1
GI50 [1]: 0.329 µM and 0.239 µM
TGI [1]: 1.92 µM and 1.39 µM
GI50 [2]: 0.12 µM and 0.0887 µM
TGI [2]: 0.595 µM and 0.33 µM
GI50 [3]: 0.283 µM and 0.272 µM
TGI [3]: 3.88 µM and 11.3 µM
GI50 [4]: 0.372 µM and 0.714 µM
TGI [4]: 3.83 µM and 5.2 µM
GI50 [5]: > 5.3 µM and 6.65 µM
TGI [5]: > 10 µM and 26.4 µM
GI50 [6]: 1.35 µM and 6.41 µM
TGI [6]: > 6.29 µM and 36.4 µM
GI50 [7]: 0.128 µM and 0.0788 µM
TGI [7]: 2.66 µM and 5.4 µM
GI50 [8]: 0.101 µM and 0.0804 µM
TGI [8]: 0.459 µM and 0.264 µM
GI50 [9]: 0.0954 µM and 0.0478 µM
TGI [9]: 1.51 µM and 1.86 µM
GI50 [10]: 0.453 µM and 0.124 µM
TGI [10]: 1.65 µM and 0.79 µM

CCOC1=C/C(=N\Nc2ccc([N+](=O)[O-])cc2)CCC1
TGI [1]: > 100 µM
TGI [2]: > 100 µM
TGI [3]: > 100 µM
TGI [4]: > 100 µM
TGI [5]: 35.1 µM
TGI [6]: > 100 µM
TGI [7]: > 100 µM
TGI [8]: 73.1 µM
TGI [9]: > 100 µM
TGI [10]: > 100 µM

CC(C)(C)OC(=O)NCCCCCCCCCCCCn1c2c(c3ccccc3c1=O)C(=O)c1ccccc1-2
GI50 [1]: 20.6 µM
TGI [1]: 61.9 µM
GI50 [2]: 16.8 µM
TGI [2]: 39.9 µM
GI50 [3]: > 100 µM
TGI [3]: > 100 µM
GI50 [4]: 58.1 µM
TGI [4]: > 100 µM
GI50 [5]: > 100 µM
TGI [5]: > 100 µM
GI50 [6]: 22 µM
TGI [6]: 57.9 µM
GI50 [7]: > 100 µM
TGI [7]: > 100 µM
GI50 [8]: 8.56 µM
TGI [8]: 26.3 µM
GI50 [9]: > 100 µM
TGI [9]: > 100 µM
GI50 [10]: 24.7 µM
TGI [10]: 68.7 µM

COc1ccc(N=c2nc3sc4cc(Cl)ccc4n3c(N)c2C#N)cc1
GI50 [1]: 9.71 µM
TGI [1]: > 100 µM
GI50 [2]: 26.5 µM
TGI [2]: > 88.6 µM
GI50 [3]: 15.3 µM
TGI [3]: > 100 µM
GI50 [4]: 1.92 µM
TGI [4]: 7.99 µM
GI50 [5]: 18.3 µM
TGI [5]: > 100 µM
GI50 [6]: 8.05 µM
TGI [6]: 78.3 µM
GI50 [7]: 6.5 µM
TGI [7]: > 100 µM
GI50 [8]: 3.4 µM
TGI [8]: > 100 µM
GI50 [9]: 2.47 µM
TGI [9]: 6.89 µM
GI50 [10]: 2.64 µM
TGI [10]: 7.05 µM

CCN(CC)c1ccc(/C=N/N=C(N)N)cc1
GI50 [1]: 5.06 µM
TGI [1]: 30.5 µM
GI50 [2]: 2.27 µM
TGI [2]: 13.5 µM
GI50 [3]: 4.88 µM
TGI [3]: 27.2 µM
GI50 [4]: 3.84 µM
TGI [4]: 22.8 µM
GI50 [5]: 6.78 µM
TGI [5]: 38.9 µM
GI50 [6]: 6.73 µM
TGI [6]: > 100 µM
GI50 [7]: 4.85 µM
TGI [7]: 18.5 µM
GI50 [8]: 3.74 µM
TGI [8]: > 100 µM
GI50 [9]: 3.47 µM
TGI [9]: 16.4 µM
GI50 [10]: 2.25 µM
TGI [10]: 21.9 µM

COc1ccc(-c2cn3ccnc3c(-c3ccc(Cl)cc3)n2)cc1
GI50 [1]: 8.97 µM
TGI [1]: 58 µM
GI50 [2]: 10.2 µM
TGI [2]: 48.4 µM
GI50 [3]: 10.4 µM
TGI [3]: 46 µM
GI50 [4]: 42.8 µM
TGI [4]: > 100 µM
GI50 [5]: 33.1 µM
TGI [5]: > 100 µM
GI50 [6]: 2.9 µM
TGI [6]: 11 µM
GI50 [7]: > 100 µM
TGI [7]: > 100 µM
GI50 [8]: 6.85 µM
TGI [8]: > 100 µM
GI50 [9]: 4.68 µM
TGI [9]: > 100 µM
GI50 [10]: 2.31 µM
TGI [10]: 9.87 µM

CNC(=O)NCCCCC(NC(C)=O)C(=O)NCc1ccccc1 (stereo not drawn)
TGI [1]: > 100 µM
TGI [2]: > 100 µM
TGI [3]: > 100 µM
TGI [4]: > 100 µM
TGI [5]: > 100 µM
TGI [6]: > 100 µM
TGI [7]: > 100 µM
TGI [8]: > 100 µM
TGI [9]: > 100 µM
TGI [10]: > 100 µM

CCNC(=O)COc1ccc(Cl)c(C)c1
TGI [1]: > 100 µM
TGI [2]: > 100 µM
TGI [3]: > 100 µM
TGI [4]: > 100 µM
TGI [5]: > 100 µM
TGI [6]: > 100 µM
TGI [7]: > 100 µM
TGI [8]: > 100 µM
TGI [9]: > 100 µM
TGI [10]: > 100 µM

CCOc1ccc2cc(-c3nn(CC4CCN(C)CC4)c4ncnc(N)c34)ccc2c1
GI50 [1]: 14.1 µM
TGI [1]: 27.2 µM
GI50 [2]: 5.9 µM
TGI [2]: 26.1 µM
GI50 [3]: 12 µM
TGI [3]: 32.1 µM
GI50 [4]: 14.2 µM
TGI [4]: 40.3 µM
GI50 [5]: 4.2 µM
TGI [5]: 19.5 µM
GI50 [6]: 11.1 µM
TGI [6]: 25.8 µM
GI50 [7]: 12.1 µM
TGI [7]: 28.1 µM
GI50 [8]: 1.56 µM
TGI [8]: 15.9 µM
GI50 [9]: 18 µM
TGI [9]: 45.2 µM
GI50 [10]: 11.8 µM
TGI [10]: 25.2 µM

Nc1ccccc1SC(/C=C/NNC1=NC(c2ccccc2)C(c2ccccc2)=NN1)c1ccccc1 (stereo not drawn)
TGI [1]: 25.9 µM
TGI [2]: 22.1 µM
TGI [3]: 31.5 µM
TGI [4]: 30.4 µM
TGI [5]: 18.4 µM
TGI [6]: 26.4 µM
TGI [8]: 17.8 µM
TGI [9]: 29.1 µM
TGI [10]: 36.8 µM

Cc1cc(C)c(-c2c(O)c(Br)c(-c3c(C)cc(C)c(Br)c3C)c(O)c2Br)c(C)c1Br
GI50 [1]: 2.6 µM
TGI [1]: 8.11 µM
GI50 [2]: 0.66 µM
TGI [2]: 5.67 µM
GI50 [3]: 2.69 µM
TGI [3]: 15 µM
GI50 [4]: 2.54 µM
TGI [4]: 9.52 µM
GI50 [5]: 1.29 µM
TGI [5]: 8.22 µM
GI50 [6]: 1.66 µM
TGI [6]: 5.99 µM
GI50 [7]: 2.13 µM
TGI [7]: 5.53 µM
GI50 [8]: 1.88 µM
TGI [8]: 10.3 µM
GI50 [9]: 3.47 µM
TGI [9]: 13.1 µM
GI50 [10]: 4.67 µM
TGI [10]: 20.5 µM

O=C(OCC1=CC(=O)c2ccccc2C1=O)c1ccccc1
GI50 [1]: 12.2 µM
TGI [1]: 25.3 µM
GI50 [2]: 20.2 µM
TGI [2]: 34.9 µM
GI50 [3]: 15.1 µM
TGI [3]: 28.5 µM
GI50 [4]: 14.1 µM
TGI [4]: 31.5 µM
GI50 [5]: 15.6 µM
TGI [5]: 29.1 µM
GI50 [6]: 10.4 µM
TGI [6]: 22.8 µM
GI50 [7]: 15.5 µM
TGI [7]: 29.7 µM
GI50 [8]: 14.7 µM
TGI [8]: 29.4 µM
GI50 [9]: 11.6 µM
TGI [9]: 24.7 µM
GI50 [10]: 18.6 µM
TGI [10]: 36.8 µM

CSC(=S)NCc1cn(C)c2ccccc12
GI50 [1]: 25 µM
TGI [1]: 62.3 µM
GI50 [2]: 23.9 µM
TGI [2]: > 100 µM
GI50 [3]: 26.9 µM
TGI [3]: 80.8 µM
GI50 [4]: 23.4 µM
TGI [4]: 64.8 µM
GI50 [5]: 22.3 µM
TGI [5]: > 100 µM
GI50 [6]: 20.8 µM
TGI [6]: 61.3 µM
GI50 [7]: 50.5 µM
TGI [7]: > 100 µM
GI50 [8]: 51.4 µM
TGI [8]: > 100 µM
GI50 [9]: 33.1 µM
TGI [9]: > 100 µM
GI50 [10]: 12.8 µM
TGI [10]: 29.2 µM

Cc1cc(C)nc(NC(=O)COc2ccc(Cl)cc2)c1
TGI [1]: > 100 µM
TGI [2]: > 100 µM
TGI [3]: > 100 µM
TGI [4]: > 100 µM
TGI [6]: > 100 µM
TGI [7]: > 100 µM
TGI [8]: > 100 µM
TGI [9]: > 100 µM
TGI [10]: > 100 µM
